Source: ChEMBL document CHEMBL4304811, “Development of a Water-Soluble Indolylmaleimide Derivative IM-93 Showing Dual Inhibition of Ferroptosis and NETosis” (ACS Med Chem Lett, 2019)
Calls of active or inactive are those of the source. The calls are words filed in the database; no cut-off is given here.

How the values were obtained:
[1] = target: BMP-2-inducible protein kinase (Homo sapiens) (UniProt Q9NSY1); assay: Binding affinity to wild-type human partial length BIKE (S34 to N329 residues) expressed in bacterial expression system assessed as residual binding level at 10 uM by Kinomescan method relative to control
BMP-2-inducible protein kinase (Homo sapiens), sequence (Q9NSY1 whole entry, looked up, the tested form may be a part): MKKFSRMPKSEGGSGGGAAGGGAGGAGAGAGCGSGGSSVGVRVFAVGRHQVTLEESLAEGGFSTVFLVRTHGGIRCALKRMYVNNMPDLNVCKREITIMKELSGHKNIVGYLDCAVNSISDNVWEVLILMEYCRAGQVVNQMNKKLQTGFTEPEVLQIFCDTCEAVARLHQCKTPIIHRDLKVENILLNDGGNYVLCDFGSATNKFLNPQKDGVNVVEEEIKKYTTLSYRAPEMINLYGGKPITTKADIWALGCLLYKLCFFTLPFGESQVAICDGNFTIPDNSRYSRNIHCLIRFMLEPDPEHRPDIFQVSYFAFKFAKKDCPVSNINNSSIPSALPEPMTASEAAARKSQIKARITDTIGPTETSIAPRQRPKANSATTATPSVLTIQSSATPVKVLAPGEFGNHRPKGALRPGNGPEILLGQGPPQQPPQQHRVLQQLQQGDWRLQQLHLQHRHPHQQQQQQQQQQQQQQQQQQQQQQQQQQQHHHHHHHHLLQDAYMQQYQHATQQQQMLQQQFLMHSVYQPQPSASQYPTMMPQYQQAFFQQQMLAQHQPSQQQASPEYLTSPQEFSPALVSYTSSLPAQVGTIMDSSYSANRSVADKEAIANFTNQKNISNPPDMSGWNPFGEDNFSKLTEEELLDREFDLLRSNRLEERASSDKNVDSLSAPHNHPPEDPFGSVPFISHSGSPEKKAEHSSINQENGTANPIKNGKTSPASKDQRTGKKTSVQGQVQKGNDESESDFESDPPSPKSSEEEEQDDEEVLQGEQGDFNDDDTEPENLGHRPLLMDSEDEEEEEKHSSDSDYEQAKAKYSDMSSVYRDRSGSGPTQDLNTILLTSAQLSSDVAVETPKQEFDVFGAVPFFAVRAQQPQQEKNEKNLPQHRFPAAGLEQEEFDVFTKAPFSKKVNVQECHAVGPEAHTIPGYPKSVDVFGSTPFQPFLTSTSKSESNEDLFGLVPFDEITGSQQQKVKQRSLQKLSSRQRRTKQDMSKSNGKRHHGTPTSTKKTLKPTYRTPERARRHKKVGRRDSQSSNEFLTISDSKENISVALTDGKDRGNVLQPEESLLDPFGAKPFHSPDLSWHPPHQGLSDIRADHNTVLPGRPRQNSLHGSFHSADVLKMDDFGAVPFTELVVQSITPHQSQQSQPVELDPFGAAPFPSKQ

[2] = target: Eukaryotic translation initiation factor 2-alpha kinase 1 (Homo sapiens) (UniProt Q9BQI3); assay: Binding affinity to wild-type human partial length EIF2AK1 (Q147 to E603 residues) expressed in mammalian expression system assessed as residual binding level at 10 uM by Kinomescan method relative to control
[3] = target: Ephrin type-A receptor 5 (Homo sapiens) (UniProt P54756); assay: Binding affinity to wild-type human partial length EPHA5 (T627 to V930 residues) expressed in bacterial expression system assessed as residual binding level at 10 uM by Kinomescan method relative to control
[4] = target: Mitogen-activated protein kinase 6 (Homo sapiens) (UniProt Q16659); assay: Binding affinity to wild-type human partial length ERK3 (M1 to P413 residues) expressed in bacterial expression system assessed as residual binding level at 10 uM by Kinomescan method relative to control
[5] = target: Fibroblast growth factor receptor 2 (Homo sapiens) (UniProt P21802); assay: Binding affinity to wild-type human partial length FGFR2 (D457 to E769 residues) expressed in bacterial expression system assessed as residual binding level at 10 uM by Kinomescan method relative to control
[6] = target: Receptor-type tyrosine-protein kinase FLT3 (Homo sapiens) (UniProt P36888); assay: Binding affinity to wild-type human partial length FLT3 (V592 to Y969 residues) expressed in bacterial expression system assessed as residual binding level at 10 uM by Kinomescan method relative to control
[7] = target: Homeodomain-interacting protein kinase 4 (Homo sapiens) (UniProt Q8NE63); assay: Binding affinity to wild-type human partial length HIPK4 (M1 to V384 residues) expressed in bacterial expression system assessed as residual binding level at 10 uM by Kinomescan method relative to control
Homeodomain-interacting protein kinase 4 (Homo sapiens), sequence (Q8NE63 whole entry, the tested form may be a part): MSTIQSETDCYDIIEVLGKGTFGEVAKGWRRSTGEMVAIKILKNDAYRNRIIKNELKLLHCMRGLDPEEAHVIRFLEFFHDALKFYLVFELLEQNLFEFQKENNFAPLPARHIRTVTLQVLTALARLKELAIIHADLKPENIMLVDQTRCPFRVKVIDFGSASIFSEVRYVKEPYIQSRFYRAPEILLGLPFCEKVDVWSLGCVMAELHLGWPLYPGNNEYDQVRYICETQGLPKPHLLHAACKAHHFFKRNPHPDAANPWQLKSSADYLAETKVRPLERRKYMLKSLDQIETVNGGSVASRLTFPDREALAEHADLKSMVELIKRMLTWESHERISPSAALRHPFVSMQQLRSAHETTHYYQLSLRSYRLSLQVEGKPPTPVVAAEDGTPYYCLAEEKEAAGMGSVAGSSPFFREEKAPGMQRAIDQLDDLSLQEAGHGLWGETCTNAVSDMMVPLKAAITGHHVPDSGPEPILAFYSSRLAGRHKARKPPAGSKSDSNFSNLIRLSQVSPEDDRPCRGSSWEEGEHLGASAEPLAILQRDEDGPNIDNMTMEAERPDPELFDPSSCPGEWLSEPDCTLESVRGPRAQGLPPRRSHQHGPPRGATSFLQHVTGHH

[8] = target: Tyrosine-protein kinase JAK3 (Homo sapiens) (UniProt P52333); assay: Binding affinity to wild-type human partial length JAK3 JH1 catalytic domain (I781 to S1124 residues) expressed in mammalian expression system assessed as residual binding level at 10 uM by Kinomescan method relative to control
[9] = target: Mast/stem cell growth factor receptor Kit (Homo sapiens) (UniProt P10721); assay: Binding affinity to wild-type human partial length KIT (I571 to D952 residues) expressed in bacterial expression system assessed as residual binding level at 10 uM by Kinomescan method relative to control
[10] = target: Dual specificity mitogen-activated protein kinase kinase 4 (Homo sapiens) (UniProt P45985); assay: Binding affinity to wild-type human partial length MEK4 (S84 to D399 residues) expressed in mammalian expression system assessed as residual binding level at 10 uM by Kinomescan method relative to control
[11] = target: Maternal embryonic leucine zipper kinase (Homo sapiens) (UniProt Q14680); assay: Binding affinity to wild-type human full length MELK (M1 to V651 residues) expressed in bacterial expression system assessed as residual binding level at 10 uM by Kinomescan method relative to control
[12] = target: Myosin light chain kinase (Homo sapiens) (UniProt Q32MK0); assay: Binding affinity to wild-type human partial length MLCK (D488 to K800 residues) expressed in bacterial expression system assessed as residual binding level at 10 uM by Kinomescan method relative to control
Myosin light chain kinase (Homo sapiens), sequence (Q32MK0 whole entry, the tested form may be a part): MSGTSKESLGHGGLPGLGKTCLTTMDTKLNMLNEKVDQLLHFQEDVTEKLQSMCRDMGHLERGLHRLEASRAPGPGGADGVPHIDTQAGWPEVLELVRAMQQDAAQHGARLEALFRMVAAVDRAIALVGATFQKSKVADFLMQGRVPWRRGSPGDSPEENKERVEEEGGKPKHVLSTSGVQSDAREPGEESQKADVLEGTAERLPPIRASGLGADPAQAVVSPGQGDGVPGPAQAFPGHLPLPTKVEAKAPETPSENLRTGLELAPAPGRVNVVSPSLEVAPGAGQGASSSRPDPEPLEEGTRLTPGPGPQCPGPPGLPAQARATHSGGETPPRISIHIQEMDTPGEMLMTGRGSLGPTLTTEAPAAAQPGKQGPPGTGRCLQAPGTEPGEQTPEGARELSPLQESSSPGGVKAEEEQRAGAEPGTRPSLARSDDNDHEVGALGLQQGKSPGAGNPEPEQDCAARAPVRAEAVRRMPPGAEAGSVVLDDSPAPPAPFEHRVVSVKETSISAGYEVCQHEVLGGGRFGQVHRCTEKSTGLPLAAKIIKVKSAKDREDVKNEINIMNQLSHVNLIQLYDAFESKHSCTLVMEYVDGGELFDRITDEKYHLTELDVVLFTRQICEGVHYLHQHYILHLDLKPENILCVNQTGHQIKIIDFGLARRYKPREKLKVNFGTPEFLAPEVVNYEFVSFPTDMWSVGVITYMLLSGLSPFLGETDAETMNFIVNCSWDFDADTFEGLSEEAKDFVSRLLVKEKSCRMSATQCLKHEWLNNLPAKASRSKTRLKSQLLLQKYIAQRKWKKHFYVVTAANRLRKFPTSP

[13] = target: Myosin light chain kinase 2, skeletal/cardiac muscle (Homo sapiens) (UniProt Q9H1R3); assay: Binding affinity to wild-type human partial length MYLK2 (D258 to K570 residues) expressed in bacterial expression system assessed as residual binding level at 10 uM by Kinomescan method relative to control
Myosin light chain kinase 2, skeletal/cardiac muscle (Homo sapiens), sequence (Q9H1R3 whole entry, the tested form may be a part): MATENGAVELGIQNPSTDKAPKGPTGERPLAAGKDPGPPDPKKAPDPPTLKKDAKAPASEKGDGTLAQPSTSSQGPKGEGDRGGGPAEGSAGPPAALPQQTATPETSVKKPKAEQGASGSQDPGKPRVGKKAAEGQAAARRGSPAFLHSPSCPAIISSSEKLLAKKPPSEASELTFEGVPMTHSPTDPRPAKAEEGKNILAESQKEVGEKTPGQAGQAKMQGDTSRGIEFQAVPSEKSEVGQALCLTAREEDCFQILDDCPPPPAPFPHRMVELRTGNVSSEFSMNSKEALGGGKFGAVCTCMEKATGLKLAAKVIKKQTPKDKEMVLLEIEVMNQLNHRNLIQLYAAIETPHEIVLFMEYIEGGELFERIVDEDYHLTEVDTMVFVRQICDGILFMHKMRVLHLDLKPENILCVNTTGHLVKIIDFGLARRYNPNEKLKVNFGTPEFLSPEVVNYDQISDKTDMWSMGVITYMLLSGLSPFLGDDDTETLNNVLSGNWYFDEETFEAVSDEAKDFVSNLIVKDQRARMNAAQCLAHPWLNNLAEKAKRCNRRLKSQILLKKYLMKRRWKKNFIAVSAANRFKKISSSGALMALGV

[14] = target: Mitogen-activated protein kinase 11 (Homo sapiens) (UniProt Q15759); assay: Binding affinity to wild-type human full length p38-beta (M1 to Q364 residues) expressed in bacterial expression system assessed as residual binding level at 10 uM by Kinomescan method relative to control
[15] = target: Serine/threonine-protein kinase PAK 5 (Homo sapiens) (UniProt Q9P286); assay: Binding affinity to wild-type human partial length PAK7 (Y400 to H719 residues) expressed in bacterial expression system assessed as residual binding level at 10 uM by Kinomescan method relative to control
[16] = target: Phosphatidylinositol 4,5-bisphosphate 3-kinase catalytic subunit alpha isoform (Homo sapiens) (UniProt P42336); assay: Binding affinity to wild-type human partial length PIK3CA (R108 to N1068 residues) expressed in mammalian expression system assessed as residual binding level at 10 uM by Kinomescan method relative to control
Phosphatidylinositol 4,5-bisphosphate 3-kinase catalytic subunit alpha isoform (Homo sapiens), sequence (P42336 whole entry, the tested form may be a part, canonical isoform): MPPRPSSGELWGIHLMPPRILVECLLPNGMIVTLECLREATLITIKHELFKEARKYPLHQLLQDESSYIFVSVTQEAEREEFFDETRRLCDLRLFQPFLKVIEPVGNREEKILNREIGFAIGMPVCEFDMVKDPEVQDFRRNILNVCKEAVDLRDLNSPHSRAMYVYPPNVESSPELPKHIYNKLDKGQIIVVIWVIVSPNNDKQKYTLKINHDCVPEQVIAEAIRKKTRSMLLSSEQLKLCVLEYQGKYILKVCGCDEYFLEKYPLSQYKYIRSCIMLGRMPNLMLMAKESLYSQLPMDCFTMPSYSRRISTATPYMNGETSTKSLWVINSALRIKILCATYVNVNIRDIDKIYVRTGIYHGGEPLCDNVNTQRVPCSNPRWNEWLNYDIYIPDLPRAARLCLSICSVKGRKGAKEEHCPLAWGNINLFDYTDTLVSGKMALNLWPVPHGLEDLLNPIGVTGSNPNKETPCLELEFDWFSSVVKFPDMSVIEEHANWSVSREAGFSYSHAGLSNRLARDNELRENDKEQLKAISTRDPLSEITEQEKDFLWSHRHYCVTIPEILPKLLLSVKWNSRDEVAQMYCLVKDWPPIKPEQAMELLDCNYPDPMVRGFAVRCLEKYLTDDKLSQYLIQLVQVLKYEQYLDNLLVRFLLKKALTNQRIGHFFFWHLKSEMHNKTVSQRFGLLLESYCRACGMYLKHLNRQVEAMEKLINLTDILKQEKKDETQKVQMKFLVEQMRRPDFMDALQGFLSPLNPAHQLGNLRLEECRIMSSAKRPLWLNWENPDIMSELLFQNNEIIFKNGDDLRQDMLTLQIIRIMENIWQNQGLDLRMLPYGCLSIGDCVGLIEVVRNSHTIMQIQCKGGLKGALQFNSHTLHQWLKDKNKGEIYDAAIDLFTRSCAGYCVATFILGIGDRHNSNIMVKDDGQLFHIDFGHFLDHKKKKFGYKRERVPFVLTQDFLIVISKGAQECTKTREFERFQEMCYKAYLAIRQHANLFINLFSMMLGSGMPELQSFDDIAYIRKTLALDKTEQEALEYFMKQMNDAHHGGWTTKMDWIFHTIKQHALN

[17] = target: Phosphatidylinositol 4,5-bisphosphate 3-kinase catalytic subunit gamma isoform (Homo sapiens) (UniProt P48736); assay: Binding affinity to wild-type human partial length PIK3CG (S144 to A1102 residues) expressed in mammalian expression system assessed as residual binding level at 10 uM by Kinomescan method relative to control
[18] = target: Membrane-associated tyrosine- and threonine-specific cdc2-inhibitory kinase (Homo sapiens) (UniProt Q99640); assay: Binding affinity to wild-type human partial length PKMYT1 (A88 to G366 residues) expressed in bacterial expression system assessed as residual binding level at 10 uM by Kinomescan method relative to control
[19] = target: Interferon-induced, double-stranded RNA-activated protein kinase (Homo sapiens) (UniProt P19525); assay: Binding affinity to wild-type human partial length PRKR (F247 to C551 residues) expressed in bacterial expression system assessed as residual binding level at 10 uM by Kinomescan method relative to control
[20] = target: Serine/threonine-protein kinase SBK1 (Homo sapiens) (UniProt Q52WX2); assay: Binding affinity to wild-type human partial length SBK1 (P23 to P348 residues) expressed in mammalian expression system assessed as residual binding level at 10 uM by Kinomescan method relative to control
[21] = target: Serine/threonine-protein kinase Sgk2 (Homo sapiens) (UniProt Q9HBY8); assay: Binding affinity to wild-type human partial length SGK2 (L54 to C427 residues) expressed in mammalian expression system assessed as residual binding level at 10 uM by Kinomescan method relative to control
[22] = target: Testis-specific serine/threonine-protein kinase 1 (Homo sapiens) (UniProt Q9BXA7); assay: Binding affinity to wild-type human full length TSSK1B (M1 to Q367 residues) expressed in bacterial expression system assessed as residual binding level at 10 uM by Kinomescan method relative to control
Testis-specific serine/threonine-protein kinase 1 (Homo sapiens), sequence (Q9BXA7 whole entry, the tested form may be a part): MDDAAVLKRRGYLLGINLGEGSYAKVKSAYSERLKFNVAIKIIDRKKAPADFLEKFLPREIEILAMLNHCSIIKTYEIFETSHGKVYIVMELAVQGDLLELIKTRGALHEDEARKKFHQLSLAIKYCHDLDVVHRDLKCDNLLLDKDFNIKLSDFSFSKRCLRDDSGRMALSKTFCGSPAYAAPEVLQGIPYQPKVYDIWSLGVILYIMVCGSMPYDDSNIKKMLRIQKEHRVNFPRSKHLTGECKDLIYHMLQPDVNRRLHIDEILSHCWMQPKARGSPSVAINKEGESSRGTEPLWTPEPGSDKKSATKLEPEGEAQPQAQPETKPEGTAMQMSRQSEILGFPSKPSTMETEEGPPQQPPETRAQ

[23] = target: Serine/threonine-protein kinase 32A (Homo sapiens) (UniProt Q8WU08); assay: Binding affinity to wild-type human full length YANK1 (M1 to L396 residues) expressed in mammalian expression system assessed as residual binding level at 10 uM by Kinomescan method relative to control
Serine/threonine-protein kinase 32A (Homo sapiens), sequence (Q8WU08 whole entry, the tested form may be a part): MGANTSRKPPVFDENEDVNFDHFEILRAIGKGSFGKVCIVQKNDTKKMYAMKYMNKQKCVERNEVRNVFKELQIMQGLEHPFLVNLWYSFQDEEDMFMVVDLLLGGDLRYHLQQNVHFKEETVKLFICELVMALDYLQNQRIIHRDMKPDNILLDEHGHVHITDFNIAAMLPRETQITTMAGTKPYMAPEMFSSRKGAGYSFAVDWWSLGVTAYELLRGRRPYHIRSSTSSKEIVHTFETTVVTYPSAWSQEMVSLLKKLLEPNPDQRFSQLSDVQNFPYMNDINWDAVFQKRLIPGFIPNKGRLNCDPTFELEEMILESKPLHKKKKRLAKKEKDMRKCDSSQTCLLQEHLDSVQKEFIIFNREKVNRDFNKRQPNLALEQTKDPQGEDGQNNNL

[24] = test system: Neutrophil; assay: Inhibition of PMA-induced NETosis in human neutrophils assessed as reduction in lipid peroxidation at 20 uM preincubated for 30 mins followed by PMA stimulation measured after 30 mins by C11-Bodipy fluorescent dye based flow cytometry

## CC(C)N1C(=O)C(NCCCN(C)C)=C(c2cn(C)c3ccccc23)C1=O.Cl
[1]
  Activity: 94%
[2]
  Activity: 82%
[3]
  Activity: 96%
[4]
  Activity: 100%
[5]
  Activity: 100%
[6]
  Activity: 100%
[7]
  Activity: 84%
[8]
  Activity: 81%
[9]
  Activity: 99%
[10]
  Activity: 100%
[11]
  Activity: 100%
[12]
  Activity: 89%
[13]
  Activity: 100%
[14]
  Activity: 96%
[15]
  Activity: 100%
[16]
  Activity: 76%
[17]
  Activity: 70%
[18]
  Activity: 88%
[19]
  Activity: 100%
[20]
  Activity: 100%
[21]
  Activity: 82%
[22]
  Activity: 100%
[23]
  Activity: 67%
[24]
  inhibition: Active
